Laboratory results reported in US20110201818A1, “POLO-LIKE KINASE INHIBITORS” (TAKEDA PHARMACEUTICAL COMPANY LIMITED, priority 2007, published 2011).

Each molecule was assayed against T1, human PLK1 (Homo sapiens, UniProt P53350) (assay: PLK1 in vitro enzymatic activity assay (phosphorylation of alpha casein by recombinant PLK1)). Conditions: recombinant FLAG-tagged PLK1, alpha casein substrate, 500 nmol/L ATP, 40 min at room temperature; read-out: pIC50 (PLK1) (converted).
T1 construct: FLAG (DYKDDDDK) (N); made in house; host or cells: Sf21 insect cells, recombinant baculovirus (pFASTBAC1, Bac-to-Bac)
Format: biochemical
Procedure: PCR was performed using the vector as a template. […] After XbaI and XhoI digestion of the PCR product, the fragment was subcloned into pFASTBAC1 (Invitrogen, USA). Recombinant baculoviruses were prepared according to the procedure of the Bac-to-Bac baculovirus expression system (Invitrogen, USA). Sf21 cells were purchased from Invitrogen and grown in Sf-900 II SFM medium containing 10% fetal bovine serum, 50 μg/mL gentamicin and 0.1% pluronic F-68 (Invitrogen, USA) at 28° C. For preparation of PLK1 enzyme, Sf21 cells were infected with recombinant baculoviruses and cultured at 28° C. for 72 h.
The inhibition of PLK1 by the compounds was determined with the following assay that measures the phosphorylation of alpha casein by recombinant PLK1. Kinase reactions were performed at room temperature for 40 min in the kinase reaction buffer (25 mmol/L HEPES, pH 7.5, 10 mmol/L magnesium acetate, 1 mmol/L dithiothreitol) containing 50 ng PLK1 enzyme, 0.1 μCi [γ-^32P]ATP, 500 nmol/L ATP and 3 μg alpha casein (MP Biomedicals Inc., USA) in a final volume of 50 μL. The incubation was terminated by the addition of 10% trichloroacetic acid (Wako, Japan). Phosphorylated proteins were filtrated in GF/C filter plates (Packard, USA) with a Cell harvester (Packard, USA) and washed out free [γ-^32P]-ATP with 250 mmol/L phosphoric acid. Then, the plates were air dried for 60 min at 45° C., followed by the addition of 20 μL of MicroScint-O (Packard, USA). The radioactivity was counted by a Top-count scintillation counter (Packard, USA).

T1 sequence (P53350 with tags, fused parts or gaps): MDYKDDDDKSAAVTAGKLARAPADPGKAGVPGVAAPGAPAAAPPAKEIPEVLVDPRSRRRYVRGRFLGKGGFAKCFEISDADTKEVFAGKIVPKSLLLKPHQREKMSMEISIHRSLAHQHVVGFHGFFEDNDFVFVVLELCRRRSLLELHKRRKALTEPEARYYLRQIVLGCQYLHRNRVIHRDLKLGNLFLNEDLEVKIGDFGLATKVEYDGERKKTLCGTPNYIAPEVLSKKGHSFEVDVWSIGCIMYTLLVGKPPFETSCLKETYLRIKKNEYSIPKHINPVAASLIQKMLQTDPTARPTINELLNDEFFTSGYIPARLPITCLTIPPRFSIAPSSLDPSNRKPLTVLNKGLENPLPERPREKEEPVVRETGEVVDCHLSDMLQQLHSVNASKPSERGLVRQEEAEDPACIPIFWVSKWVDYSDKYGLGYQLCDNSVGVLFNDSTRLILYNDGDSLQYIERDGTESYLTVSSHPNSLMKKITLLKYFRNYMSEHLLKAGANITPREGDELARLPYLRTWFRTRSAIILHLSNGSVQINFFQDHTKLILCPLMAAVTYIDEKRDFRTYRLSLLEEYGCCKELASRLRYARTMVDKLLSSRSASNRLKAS

Row | Compound | IC50 [nM]
1 | COc1cc(C(=O)N2CCN(C)CC2)ccc1Nc1ncc2c(n1)N(C1CCCCC1)CC(F)(F)C(=O)N2C [Compound 57, 9-cyclohexyl-7,7-difluoro-2-(2-methoxy-4-(4-methylpiperazine-1-carbonyl)-phenylamino)-5-methyl-8,9-dihydro-5H-pyrimido[4,5-b][1,4]diazepin-6(7H)-one] | > 2
2 | CN1CCC(NC(=O)c2ccc(Nc3ncc4c(n3)N(C3CCCC3)CC(F)(F)C(=O)N4C)c(F)c2)CC1 [Compound 22, 4-(9-Cyclopentyl-7,7-difluoro-5-methyl-6-oxo-6,7,8,9-tetrahydro-5H-pyrimido[4,5-b][1,4]diazepin-2-ylamino)-3-fluoro-N-(1-methylpiperidin-4-yl)benzamide] | ≤ 2
3 | COc1cc(C(=O)NC2CN(C)C2)ccc1Nc1ncc2c(n1)N(C1CCCCC1)CC(F)(F)C(=O)N2C [Compound 35, 4-(9-Cyclohexyl-7,7-difluoro-5-methyl-6-oxo-6,7,8,9-tetrahydro-5H-pyrimido[4,5-b][1,4]diazepin-2-ylamino)-3-methoxy-N-(1-methylazetidin-3-yl)benzamide] | ≤ 2
4 | CNC(=O)c1ccc(Nc2ncc3c(n2)N(C2CCCCC2)CC(F)(F)C(=O)N3C)c(OC)c1 [Compound 60, 4-(9-cyclohexyl-7,7-difluoro-5-methyl-6-oxo-6,7,8,9-tetrahydro-5H-pyrimido[4,5-b][1,4]diazepin-2-ylamino)-3-methoxy-N-methylbenzamide] | ≤ 2
5 | COc1cc(CO)ccc1Nc1ncc2c(n1)N(C1CCCC1)CC(F)(F)CN2C [Compound 137, (4-(9-cyclopentyl-7,7-difluoro-5-methyl-6,7,8,9-tetrahydro-5H-pyrimido[4,5-b][1,4]diazepin-2-ylamino)-3-methoxyphenyl)methanol] | > 2
6 | COc1cc(C(=O)NC[C@@H](C)O)ccc1Nc1ncc2c(n1)N(C1CCCCC1)CC(F)(F)C(=O)N2C [Compound 62, (R)-4-(9-cyclohexyl-7,7-difluoro-5-methyl-6-oxo-6,7,8,9-tetrahydro-5H-pyrimido[4,5-b][1,4]diazepin-2-ylamino)-N-(2-hydroxypropyl)-3-methoxybenzamide] | ≤ 2
7 | COc1cc(C(=O)N[C@H]2CC[C@H](O)CC2)ccc1Nc1ncc2c(n1)N(C1CCCCC1)CC(F)(F)C(=O)N2C [Compound 40, 4-(9-cyclohexyl-7,7-difluoro-5-methyl-6-oxo-6,7,8,9-tetrahydro-5H-pyrimido[4,5-b][1,4]diazepin-2-ylamino)-N-((1r,4r)-4-hydroxycyclohexyl)-3-methoxybenzamide] | ≤ 2
8 | COc1cc(C(=O)NC2CCN(C)CC2)ccc1Nc1ncc2c(n1)N(C1CCCCC1)CC(C)(F)C(=O)N2C (centres unmarked) [Compound 89, 4-(9-Cyclohexyl-7-fluoro-5,7-dimethyl-6-oxo-6,7,8,9-tetrahydro-5H-pyrimido[4,5-b][1,4]diazepin-2-ylamino)-3-methoxy-N-(1-methylpiperidin-4-yl)benzamide] | ≤ 2
9 | CCC1(F)CN(C2CCCCC2)c2nc(Nc3ccc(C(=O)NC4CCN(C)CC4)cc3OC)ncc2N(C)C1=O (centres unmarked) [Compound 96, 4-(9-Cyclohexyl-7-ethyl-7-fluoro-5-methyl-6-oxo-6,7,8,9-tetrahydro-5H-pyrimido[4,5-b][1,4]diazepin-2-ylamino)-3-methoxy-N-(1-methylpiperidin-4-yl)benzamide] | > 2
10 | CN(C)CCOc1ccc(Nc2ncc3c(n2)N(C2CCCC2)CC(F)(F)C(=O)N3C)cc1 [Compound 17, 9-cyclopentyl-2-(4-(2-(dimethylamino)ethoxy)phenylamino)-7,7-difluoro-5-methyl-8,9-dihydro-5H-pyrimido[4,5-b][1,4]diazepin-6(7H)-one] | > 2
11 | COc1cc(C(=O)NCCCN(C)C)ccc1Nc1ncc2c(n1)N(C1CCCCC1)CC(F)(F)C(=O)N2C [Compound 54, 4-(9-cyclohexyl-7,7-difluoro-5-methyl-6-oxo-6,7,8,9-tetrahydro-5H-pyrimido[4,5-b][1,4]diazepin-2-ylamino)-N-(3-(dimethylamino)propyl)-3-methoxybenzamide] | > 2
